# Reference: patent publication US5488035A (priority 1991, dated 1996)
# Read-outs that look alike come from different tables or passages of the source. Bridge positions count the residues as written; N and C are the ends. Peptide text beside a SMILES is read from it.
# Legend:
# Type in all cases: cell-based
# [1] = system: FGR 005 (Fusarium graminearum); conditions: MIC Comparisons
# [2] = system: FGR 008 (Fusarium graminearum)
# [3] = system: AFL 001 (Aspergillus flavus); assay: Minimum inhibitory concentration; conditions: for MIC AFL 001: MIC Comparisons; for Dependence of MIC on buffer pH, AFL 001: buffer pHs of from 5.0 to 8.0
# Experimental: Decreasing tested concentrations of tachyplesin were against the preceding four organisms plus Fusarium moniliforme and Sclerotinia sclerotiorum to determine the minimum inhibitory concentration, and this was compared with other antimicrobial compounds. Results were as follows:
# The MICs of tachyplesin, defensin and hordothionin (μg/ml) were measured against FGR 008 and AFL 001 across a range of buffer pHs and ionic strengths to determine their suitability as plant antimicrobials under varying conditions.
# [4] = system: FMO 001 (Fusarium moniliforme); assay: Minimum inhibitory concentration; conditions: MIC Comparisons
# From the text: (§1) Decreasing tested concentrations of tachyplesin were against the preceding four organisms plus Fusarium moniliforme and Sclerotinia sclerotiorum to determine the minimum inhibitory concentration, and this was compared with other antimicrobial compounds.
# [5] = system: SSC 002 (Sclerotinia sclerotiorum); assay: Minimum inhibitory concentration; conditions: MIC Comparisons
# From the text: as §1
# [6] = system: SSC ascospores (Sclerotinia sclerotiorum); assay: Antifungal activity score, decreasing concentrations; conditions: Example 2, scale 0-4
# Experimental: (§2) The tachyplesin was used at a concentration of 100 μg/ml as determined by absorption spectrum was screened against four common plant pathogens in both crude and oxidized forms. Antifungal activity was scored on a scale of 0 to 4, with 0 being no inhibition observed relative to a water control, and 4 being complete inhibition. Two reps were done for each treatment. Results were as follows:
# as §1
# [7] = system: FMO 001 (Fusarium moniliforme); assay: as above; conditions: Example 2, scale 0-4
# Experimental: as §2, §1
# [8] = system: Aspergillus flavus, isolate 1 (AFL 001); assay: as above; conditions: Example 2, scale 0-4
# Experimental: as §2, §1
# [9] = system: SSC 002 (Sclerotinia sclerotiorum); assay: as above; conditions: Example 2, scale 0-4
# Experimental: as §2, §1
# [10] = system: Fusarium graminearum, isolate 5 (FGR 005); conditions: for Score (antifungal activity), Fusarium graminearum, isolate 5: Example 1, 100 μg/ml; for Score FGR 005: Example 2, scale 0-4
# [11] = system: Sclerotinia trifoliorum, isolate 1; assay: Antifungal activity score; conditions: Example 1, 100 μg/ml
# Experimental: as §2, with “treatment.” for “treatment. Results were as follows:”
# [12] = system: Fusarium graminearum, isolate 8 (FGR 008); conditions: Example 2, scale 0-4
compound,measurement,setting,value
hordothionin,MIC FGR 005,[1]; value before parentheses,5 mg/L
same,MIC FGR 005,[1]; value in parentheses,1 µM
same,"Dependence of MIC on buffer pH, FGR 008",[2]; buffer pHs of from 5.0 to 8.0,None of the antimicrobials showed a discernible trend or optimum
same,MIC AFL 001,[3]; value before parentheses,15 mg/L
same,MIC AFL 001,[3]; value in parentheses,3 µM
same,"Dependence of MIC on buffer pH, AFL 001",[3],None of the antimicrobials showed a discernible trend or optimum
same,MIC FMO 001,[4]; value before parentheses,45 mg/L
same,MIC FMO 001,[4]; value in parentheses,9 µM
same,MIC SSC 002,[5]; value before parentheses,30 mg/L
same,MIC SSC 002,[5]; value in parentheses,6 µM
tachyplesin [tachyplesin oxidized],Score SSC ascospores,[6]; 1.56 μg/ml (0.7 μM),0.0
same,Score SSC ascospores,[6]; 3.13 μg/ml (1.4 μM),0.0
same,Score SSC ascospores,[6]; 6.25 μg/ml (2.8 μM),3.0
same,Score SSC ascospores,[6]; 12.5 μg/ml (5.6 μM),4.0
same,Score SSC ascospores,[6]; 25 μg/ml (11.1 μM),4.0
same,Score SSC ascospores,[6]; 50 μg/ml (22.2 μM),4.0
same,Score SSC ascospores,[6]; 100 μg/ml (44.4 μM),4.0
same,Score FMO 001,[7]; 1.56 μg/ml (0.7 μM),0.0
same,Score FMO 001,[7]; 3.13 μg/ml (1.4 μM),0.5
same,Score FMO 001,[7]; 6.25 μg/ml (2.8 μM),1.0
same,Score FMO 001,[7]; 12.5 μg/ml (5.6 μM),2.5
same,Score FMO 001,[7]; 25 μg/ml (11.1 μM),4.0
same,Score FMO 001,[7]; 50 μg/ml (22.2 μM),4.0
same,Score FMO 001,[7]; 100 μg/ml (44.4 μM),4.0
same,Score AFL 001,[8]; 1.56 μg/ml (0.7 μM),0.0
same,Score AFL 001,[8]; 3.13 μg/ml (1.4 μM),0.0
same,Score AFL 001,[8]; 6.25 μg/ml (2.8 μM),1.0
same,Score AFL 001,[8]; 12.5 μg/ml (5.6 μM),1.5
same,Score AFL 001,[8]; 25 μg/ml (11.1 μM),2.75
same,Score AFL 001,[8]; 50 μg/ml (22.2 μM),3.75
same,Score AFL 001,[8]; 100 μg/ml (44.4 μM),3.75
same,Score SSC 002,[9]; 1.56 μg/ml (0.7 μM),0.0
same,Score SSC 002,[9]; 3.13 μg/ml (1.4 μM),0.0
same,Score SSC 002,[9]; 6.25 μg/ml (2.8 μM),0.0
same,Score SSC 002,[9]; 12.5 μg/ml (5.6 μM),4.0
same,Score SSC 002,[9]; 25 μg/ml (11.1 μM),4.0
same,Score SSC 002,[9]; 50 μg/ml (22.2 μM),4.0
same,Score SSC 002,[9]; 100 μg/ml (44.4 μM),4.0
same,"Score (antifungal activity), Fusarium graminearum, isolate 5",[10],4.0
same,Score FGR 005,[10]; 1.56 μg/ml (0.7 μM),0.0
same,Score FGR 005,[10]; 3.13 μg/ml (1.4 μM),0.0
same,Score FGR 005,[10]; 6.25 μg/ml (2.8 μM),2.25
same,Score FGR 005,[10]; 12.5 μg/ml (5.6 μM),3.5
same,Score FGR 005,[10]; 25 μg/ml (11.1 μM),4.0
same,Score FGR 005,[10]; 50 μg/ml (22.2 μM),4.0
same,Score FGR 005,[10]; 100 μg/ml (44.4 μM),4.0
same,"Score (antifungal activity), Sclerotinia trifoliorum, isolate 1",[11],4.0
same,Score FGR 008,[12]; 1.56 μg/ml (0.7 μM),0.0
same,Score FGR 008,[12]; 3.13 μg/ml (1.4 μM),0.0
same,Score FGR 008,[12]; 6.25 μg/ml (2.8 μM),2.0
same,Score FGR 008,[12]; 12.5 μg/ml (5.6 μM),4.0
same,Score FGR 008,[12]; 25 μg/ml (11.1 μM),4.0
same,Score FGR 008,[12]; 50 μg/ml (22.2 μM),4.0
same,Score FGR 008,[12]; 100 μg/ml (44.4 μM),4.0
CMIII,MIC AFL 001,[3]; value before parentheses,60 mg/L
same,MIC AFL 001,[3]; value in parentheses,15 µM
same,MIC FMO 001,[4]; value before parentheses,18.2 mg/L
same,MIC FMO 001,[4]; value in parentheses,4.6 µM
same,MIC SSC 002,[5]; value before parentheses,24 mg/L
same,MIC SSC 002,[5]; value in parentheses,6 µM
tachyplesin [tachyplesin crude],Score SSC ascospores,[6]; 1.56 μg/ml (0.7 μM),0.0
same,Score SSC ascospores,[6]; 3.13 μg/ml (1.4 μM),0.0
same,Score SSC ascospores,[6]; 6.25 μg/ml (2.8 μM),0.0
same,Score SSC ascospores,[6]; 12.5 μg/ml (5.6 μM),4.0
same,Score SSC ascospores,[6]; 25 μg/ml (11.1 μM),4.0
same,Score SSC ascospores,[6]; 50 μg/ml (22.2 μM),4.0
same,Score SSC ascospores,[6]; 100 μg/ml (44.4 μM),4.0
same,Score FMO 001,[7]; 1.56 μg/ml (0.7 μM),0.0
same,Score FMO 001,[7]; 3.13 μg/ml (1.4 μM),0.0
same,Score FMO 001,[7]; 6.25 μg/ml (2.8 μM),0.5
same,Score FMO 001,[7]; 12.5 μg/ml (5.6 μM),1.25
same,Score FMO 001,[7]; 25 μg/ml (11.1 μM),3.75
same,Score FMO 001,[7]; 50 μg/ml (22.2 μM),4.0
same,Score FMO 001,[7]; 100 μg/ml (44.4 μM),4.0
same,Score AFL 001,[8]; 1.56 μg/ml (0.7 μM),0.0
same,Score AFL 001,[8]; 3.13 μg/ml (1.4 μM),0.0
same,Score AFL 001,[8]; 6.25 μg/ml (2.8 μM),0.0
same,Score AFL 001,[8]; 12.5 μg/ml (5.6 μM),1.0
same,Score AFL 001,[8]; 25 μg/ml (11.1 μM),1.5
same,Score AFL 001,[8]; 50 μg/ml (22.2 μM),3.25
same,Score AFL 001,[8]; 100 μg/ml (44.4 μM),3.5
same,Score SSC 002,[9]; 1.56 μg/ml (0.7 μM),0.0
same,Score SSC 002,[9]; 3.13 μg/ml (1.4 μM),0.0
same,Score SSC 002,[9]; 6.25 μg/ml (2.8 μM),0.0
same,Score SSC 002,[9]; 12.5 μg/ml (5.6 μM),1.0
same,Score SSC 002,[9]; 25 μg/ml (11.1 μM),4.0
same,Score SSC 002,[9]; 50 μg/ml (22.2 μM),4.0
same,Score SSC 002,[9]; 100 μg/ml (44.4 μM),4.0
same,"Score (antifungal activity), Fusarium graminearum, isolate 5",[10],4.0
same,Score FGR 005,[10]; 1.56 μg/ml (0.7 μM),0.0
same,Score FGR 005,[10]; 3.13 μg/ml (1.4 μM),0.0
same,Score FGR 005,[10]; 6.25 μg/ml (2.8 μM),1.0
same,Score FGR 005,[10]; 12.5 μg/ml (5.6 μM),3.0
same,Score FGR 005,[10]; 25 μg/ml (11.1 μM),4.0
same,Score FGR 005,[10]; 50 μg/ml (22.2 μM),4.0
same,Score FGR 005,[10]; 100 μg/ml (44.4 μM),4.0
same,"Score (antifungal activity), Sclerotinia trifoliorum, isolate 1",[11],4.0
same,Score FGR 008,[12]; 1.56 μg/ml (0.7 μM),0.0
same,Score FGR 008,[12]; 3.13 μg/ml (1.4 μM),0.0
same,Score FGR 008,[12]; 6.25 μg/ml (2.8 μM),0.0
same,Score FGR 008,[12]; 12.5 μg/ml (5.6 μM),3.75
same,Score FGR 008,[12]; 25 μg/ml (11.1 μM),4.0
same,Score FGR 008,[12]; 50 μg/ml (22.2 μM),4.0
same,Score FGR 008,[12]; 100 μg/ml (44.4 μM),4.0
"CC[C@H](C)[C@@H]1NC(=O)CNC(=O)[C@H](CCCNC(=N)N)NC(=O)[C@H](Cc2ccc(O)cc2)NC(=O)[C@@H]2CSSC[C@H](NC1=O)C(=O)N[C@@H](Cc1ccc(O)cc1)C(=O)N[C@@H](CCCNC(=N)N)C(=O)N[C@@H](CCCNC(=N)N)C(=O)N[C@H](C(=O)N[C@@H](CCCNC(=N)N)C(=O)O)CSSC[C@H](NC(=O)[C@H](Cc1c[nH]c3ccccc13)NC(=O)[C@@H](N)CCCCN)C(=O)N[C@@H](Cc1ccccc1)C(=O)N[C@@H](CCCNC(=N)N)C(=O)N[C@@H](C(C)C)C(=O)N2 [tachyplesin] (H-KWCFRVCYRGICYRRCR-OH; disulfide 3-16, 7-12; N-terminus assumed)","Dependence of MIC on buffer pH, FGR 008",[2],None of the antimicrobials showed a discernible trend or optimum
same,MIC AFL 001,[3]; value before parentheses,6.25 mg/L
same,MIC AFL 001,[3]; value in parentheses,2.8 µM
same,"Dependence of MIC on buffer pH, AFL 001",[3],None of the antimicrobials showed a discernible trend or optimum
same,MIC FMO 001,[4]; value before parentheses,6.25 mg/L
same,MIC FMO 001,[4]; value in parentheses,2.8 µM
same,MIC SSC 002,[5]; value before parentheses,12.5 mg/L
same,MIC SSC 002,[5]; value in parentheses,5.6 µM
